# Measurements: ChEMBL document CHEMBL1201862, “PubChem BioAssay data set” (2004)
# The source made the active and inactive calls.
# Columns and labels:
# [1] = target: Neuropeptide Y receptor type 1 (Homo sapiens, UniProt P25929); assay type: functional;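 note: HEK293 cells with a CNG channel challenged with NPY then isoproterenol; potency as antagonist that reverses NPY suppression of cAMP signal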
# [2] = target: Neuropeptide Y receptor type 2 (Homo sapiens, UniProt P49146); assay type: functional, cell-based;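 note: HEK293 cells expressing the receptor and a CNG channel; stimulus was NPY near EC95 followed by isoproterenol to raise cAMP; antagonist potency measured as restoring cAMP signal that NPY suppresses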
# Chain of Neuropeptide Y receptor type 2 (P49146 whole entry): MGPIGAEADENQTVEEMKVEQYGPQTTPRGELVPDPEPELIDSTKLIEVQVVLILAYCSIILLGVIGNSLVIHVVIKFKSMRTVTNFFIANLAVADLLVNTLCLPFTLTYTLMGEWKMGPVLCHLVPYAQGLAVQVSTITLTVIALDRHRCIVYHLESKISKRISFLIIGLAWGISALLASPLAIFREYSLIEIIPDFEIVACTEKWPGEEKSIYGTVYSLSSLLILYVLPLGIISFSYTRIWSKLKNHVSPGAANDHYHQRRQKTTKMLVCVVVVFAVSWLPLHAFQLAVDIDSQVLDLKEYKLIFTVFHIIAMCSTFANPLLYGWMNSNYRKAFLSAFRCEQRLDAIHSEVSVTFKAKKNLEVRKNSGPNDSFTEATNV
# [3] = HEK293 cell cytotoxicity, dose response, cytotoxicity control, plate reader, cherry-picked samples (AID 743446); assay type: functional, cell-based
# [4] = target: T1, Sphingosine 1-phosphate receptor 4 (Homo sapiens, UniProt O95977); test: Fluorescence dose response cell-based high throughput screening assay for antagonists of the Sphingosine 1-Phosphate Receptor 4 (S1P4). [Related pubchem assays: 1524 (Confirmation in triplicates.), 1510 (Primary screen.)]; assay type: functional
# T1 sequence (O95977 whole entry): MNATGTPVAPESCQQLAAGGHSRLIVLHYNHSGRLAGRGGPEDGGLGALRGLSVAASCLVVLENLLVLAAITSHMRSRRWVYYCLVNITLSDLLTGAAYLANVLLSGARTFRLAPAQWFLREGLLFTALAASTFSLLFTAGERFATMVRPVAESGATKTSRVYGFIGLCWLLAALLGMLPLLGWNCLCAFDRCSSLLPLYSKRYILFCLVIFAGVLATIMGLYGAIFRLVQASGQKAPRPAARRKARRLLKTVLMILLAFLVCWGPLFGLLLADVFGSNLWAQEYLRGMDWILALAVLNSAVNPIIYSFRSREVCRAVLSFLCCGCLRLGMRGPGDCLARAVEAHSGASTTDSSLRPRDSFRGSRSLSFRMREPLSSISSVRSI
# [5] = Fluorescence-based cell-based high throughput dose response assay for inhibitors of the interaction of nucleotide-binding oligomerization domain containing 2 (NOD2) and the receptor-interacting serine-threonine kinase 2 (RIPK2).; assay type: functional, Homo sapiens; conditions: Homo sapiens
# [6] = HepG2 cell cytotoxicity, dose response, cytotoxicity control, plate reader, cherry-pick, antagonist series (AID 743416); assay type: functional, cell-based
# [7] = MC4R antagonists, dose response, counter-screen for LGR2 antagonist project, cell-based, plate reader, cherry pick (AID 743444); assay type: functional;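 note: transfected HEK 293 cells stimulated with alpha-MSH peptide; potency of inhibitors of the alpha-MSH evoked signal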
# A-375 = test: A375 melanoma cell viability reduction, dose response, counter-screen for MITF modulator project, cherry-pick samples, set 2 (AID 540335); assay type: functional, cell-based; conditions: Homo sapiens
# [8] = A549 cell cytotoxicity, dose response, cytotoxicity control, plate reader, cherry-pick, antagonist series (AID 743412); assay type: functional, cell-based
# [9] = target: T2, Microphthalmia-associated transcription factor (Homo sapiens, UniProt O75030); test: TRPM1 promoter luciferase signal decrease, dose response, MITF inhibitor project, cell-based, SK-MEL-5, cherry-picked, set 3 (AID 493073); assay type: functional
# T2 sequence (O75030 whole entry): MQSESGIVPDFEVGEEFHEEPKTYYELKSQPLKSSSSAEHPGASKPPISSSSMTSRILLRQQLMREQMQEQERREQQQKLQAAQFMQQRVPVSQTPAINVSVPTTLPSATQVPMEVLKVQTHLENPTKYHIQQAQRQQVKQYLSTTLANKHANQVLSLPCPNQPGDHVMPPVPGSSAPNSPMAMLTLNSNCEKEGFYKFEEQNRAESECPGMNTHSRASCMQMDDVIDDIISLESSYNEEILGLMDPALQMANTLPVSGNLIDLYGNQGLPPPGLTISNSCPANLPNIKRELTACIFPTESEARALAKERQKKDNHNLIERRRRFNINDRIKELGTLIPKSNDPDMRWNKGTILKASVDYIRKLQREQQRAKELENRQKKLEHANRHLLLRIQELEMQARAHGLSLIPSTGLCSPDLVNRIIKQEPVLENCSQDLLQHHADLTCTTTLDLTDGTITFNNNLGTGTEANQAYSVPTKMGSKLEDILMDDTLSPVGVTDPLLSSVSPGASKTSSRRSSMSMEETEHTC
# [10] = target: T3, Heat shock factor protein 1 (Mus musculus, UniProt P38532); test: inhibition of MG132-induced HSE-luciferase signal, confirmation, cell-based, NIH3T3, luminescence, dose retest (AID 2382); assay type: functional;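 note: NIH3T3 fibroblasts with HSF1-driven luciferase reporter stressed by proteasome inhibitor MG132; luminescence from HSF1-driven luciferase expression after 8 hours of MG132 stress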
# T3 sequence (P38532 whole entry): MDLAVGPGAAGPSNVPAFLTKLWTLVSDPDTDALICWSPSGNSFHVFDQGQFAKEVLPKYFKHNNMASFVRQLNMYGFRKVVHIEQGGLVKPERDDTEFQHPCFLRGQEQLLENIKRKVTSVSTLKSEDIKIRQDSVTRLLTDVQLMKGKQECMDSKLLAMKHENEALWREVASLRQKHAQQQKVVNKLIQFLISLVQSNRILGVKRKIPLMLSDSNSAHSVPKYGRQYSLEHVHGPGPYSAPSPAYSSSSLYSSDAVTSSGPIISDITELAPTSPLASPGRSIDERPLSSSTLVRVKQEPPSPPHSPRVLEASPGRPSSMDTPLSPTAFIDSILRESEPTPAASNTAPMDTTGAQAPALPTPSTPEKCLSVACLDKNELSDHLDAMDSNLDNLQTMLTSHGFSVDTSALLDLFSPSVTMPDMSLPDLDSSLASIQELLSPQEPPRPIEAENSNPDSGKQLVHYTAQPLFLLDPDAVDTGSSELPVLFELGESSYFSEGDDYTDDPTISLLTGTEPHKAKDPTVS
# [11] = target: Sphingosine 1-phosphate receptor 1 (Homo sapiens, UniProt P21453); assay type: functional;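 note: Tango beta-arrestin reporter U2OS cells stimulated with S1P near its EC80; inhibitor potency meaning antagonism of receptor activation by the natural agonist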
# Chain of Sphingosine 1-phosphate receptor 1 (P21453 whole entry): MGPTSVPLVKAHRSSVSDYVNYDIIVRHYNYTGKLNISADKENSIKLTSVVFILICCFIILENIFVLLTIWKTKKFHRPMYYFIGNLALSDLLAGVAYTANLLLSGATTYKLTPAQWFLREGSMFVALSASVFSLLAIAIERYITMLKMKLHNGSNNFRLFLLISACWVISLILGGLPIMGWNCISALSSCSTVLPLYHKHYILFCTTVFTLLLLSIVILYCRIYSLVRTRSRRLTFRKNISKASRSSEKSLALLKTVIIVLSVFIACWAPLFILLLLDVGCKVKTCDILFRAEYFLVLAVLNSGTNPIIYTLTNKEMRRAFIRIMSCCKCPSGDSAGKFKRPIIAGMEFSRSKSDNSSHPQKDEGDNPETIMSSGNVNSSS
# [12] = LGR2 antagonists, dose response, cell-based, HEK293, CRE-luciferase reporter, cherry pick, set 2 (AID 743343); assay type: functional;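 note: transfected cells were stimulated with diluted bursicon conditioned medium after compound addition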
# [13] = non-specific cell cytotoxicity, dose response, cytotoxicity control for PAX8 inhibitor project, plate reader, dry powder samples (AID 743021); assay type: functional, cell-based
# Paired box protein Pax-8 = Paired box protein Pax-8 (Homo sapiens, UniProt Q06710); test: inhibitors of PAX8-driven TPO luciferase reporter, dose response, RMG-I cells, cherry-pick (AID 687027); assay type: functional, cell-based;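 note: luciferase reporter driven by Pax8 target thyroperoxidase promoter measured by SteadyGlo luminescence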
# Chain of Paired box protein Pax-8 (Q06710 whole entry): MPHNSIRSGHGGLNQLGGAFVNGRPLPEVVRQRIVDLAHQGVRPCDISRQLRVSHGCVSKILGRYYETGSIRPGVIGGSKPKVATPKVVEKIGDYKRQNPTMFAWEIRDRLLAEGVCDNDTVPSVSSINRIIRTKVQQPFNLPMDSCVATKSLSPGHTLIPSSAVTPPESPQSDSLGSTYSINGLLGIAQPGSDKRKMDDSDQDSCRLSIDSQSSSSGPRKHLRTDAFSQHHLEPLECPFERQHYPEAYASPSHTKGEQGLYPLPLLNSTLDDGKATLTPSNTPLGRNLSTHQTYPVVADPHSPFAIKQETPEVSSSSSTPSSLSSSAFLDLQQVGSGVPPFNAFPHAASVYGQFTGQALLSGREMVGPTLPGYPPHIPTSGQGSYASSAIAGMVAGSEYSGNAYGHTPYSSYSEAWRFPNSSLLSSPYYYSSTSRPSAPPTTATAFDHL
# [14] = target: Potassium voltage-gated channel subfamily KQT member 2 (Rattus norvegicus, UniProt O88943, W236L); test: KCNQ2 channel potentiators, dose response, mechanism study for KCNQ2 potentiator project, cell-based, automated electrophysiology (AID 2603); assay type: functional
# Chain of Potassium voltage-gated channel subfamily KQT member 2 (O88943 whole entry W236L): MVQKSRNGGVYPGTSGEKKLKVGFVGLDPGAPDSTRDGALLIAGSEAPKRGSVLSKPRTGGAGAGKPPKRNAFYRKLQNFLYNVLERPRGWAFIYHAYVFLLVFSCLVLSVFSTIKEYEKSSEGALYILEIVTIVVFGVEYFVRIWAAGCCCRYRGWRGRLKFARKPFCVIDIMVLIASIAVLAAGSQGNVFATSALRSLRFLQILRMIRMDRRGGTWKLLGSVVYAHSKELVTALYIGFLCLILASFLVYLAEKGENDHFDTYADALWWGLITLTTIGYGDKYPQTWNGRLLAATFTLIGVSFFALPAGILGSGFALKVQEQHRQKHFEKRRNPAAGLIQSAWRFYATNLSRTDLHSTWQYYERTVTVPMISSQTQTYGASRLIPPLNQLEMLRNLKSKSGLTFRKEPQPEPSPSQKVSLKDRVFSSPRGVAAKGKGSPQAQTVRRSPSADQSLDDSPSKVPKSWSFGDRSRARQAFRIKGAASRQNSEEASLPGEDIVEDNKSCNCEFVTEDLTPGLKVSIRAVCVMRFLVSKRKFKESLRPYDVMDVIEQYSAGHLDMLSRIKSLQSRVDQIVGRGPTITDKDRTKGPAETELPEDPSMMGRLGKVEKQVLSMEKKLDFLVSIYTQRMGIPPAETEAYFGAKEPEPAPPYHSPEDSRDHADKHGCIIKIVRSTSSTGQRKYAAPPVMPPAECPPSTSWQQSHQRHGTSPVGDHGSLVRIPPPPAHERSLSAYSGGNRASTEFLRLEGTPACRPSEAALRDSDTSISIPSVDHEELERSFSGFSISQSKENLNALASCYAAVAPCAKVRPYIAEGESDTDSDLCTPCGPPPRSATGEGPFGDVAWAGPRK
# Large T antigen = Large T antigen (Simian virus 40, UniProt P03070); assay type: functional, Betapolyomavirus macacae;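 note: Confirmatory-stage PubChem screen for compounds that inhibit SV40 T antigen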
# [15] = target: T4, Voltage-gated inwardly rectifying potassium channel KCNH2 (Homo sapiens, UniProt Q12809); conditions: Potency;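 note: confirmatory quantitative high-throughput screen measuring inhibition of hERG channel activity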
# T4 sequence (Q12809 whole entry): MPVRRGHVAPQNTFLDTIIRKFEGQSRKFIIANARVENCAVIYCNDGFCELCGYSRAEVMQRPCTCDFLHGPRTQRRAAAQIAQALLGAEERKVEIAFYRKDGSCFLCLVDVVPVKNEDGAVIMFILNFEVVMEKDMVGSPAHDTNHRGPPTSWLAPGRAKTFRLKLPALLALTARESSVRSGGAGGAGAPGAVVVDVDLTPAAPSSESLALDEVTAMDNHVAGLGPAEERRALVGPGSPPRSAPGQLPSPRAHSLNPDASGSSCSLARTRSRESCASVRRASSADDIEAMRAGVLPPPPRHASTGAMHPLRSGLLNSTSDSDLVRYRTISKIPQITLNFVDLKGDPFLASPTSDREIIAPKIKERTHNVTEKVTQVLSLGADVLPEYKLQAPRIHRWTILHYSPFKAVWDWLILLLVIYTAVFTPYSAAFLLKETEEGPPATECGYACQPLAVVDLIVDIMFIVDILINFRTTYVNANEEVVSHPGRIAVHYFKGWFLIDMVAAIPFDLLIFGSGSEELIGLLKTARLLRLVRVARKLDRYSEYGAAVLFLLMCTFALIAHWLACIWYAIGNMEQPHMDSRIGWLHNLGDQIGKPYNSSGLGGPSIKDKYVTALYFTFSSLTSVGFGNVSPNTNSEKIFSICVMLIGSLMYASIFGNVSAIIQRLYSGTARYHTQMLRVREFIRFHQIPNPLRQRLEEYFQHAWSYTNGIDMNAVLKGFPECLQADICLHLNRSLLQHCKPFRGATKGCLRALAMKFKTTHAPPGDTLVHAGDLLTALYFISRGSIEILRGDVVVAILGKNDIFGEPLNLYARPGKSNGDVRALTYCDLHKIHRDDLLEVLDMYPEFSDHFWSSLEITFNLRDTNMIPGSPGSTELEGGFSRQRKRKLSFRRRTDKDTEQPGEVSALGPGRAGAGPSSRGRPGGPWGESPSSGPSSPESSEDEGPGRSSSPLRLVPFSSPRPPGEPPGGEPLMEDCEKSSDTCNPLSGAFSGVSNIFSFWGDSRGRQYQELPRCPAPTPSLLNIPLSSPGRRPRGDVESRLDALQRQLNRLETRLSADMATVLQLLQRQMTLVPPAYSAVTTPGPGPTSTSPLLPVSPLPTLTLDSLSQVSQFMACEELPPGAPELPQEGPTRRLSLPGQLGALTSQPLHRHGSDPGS
# [16] = Luminescent dose response cell-based high throughput screening assay for inhibitors of the Janus kinase 2 mutant JAK2V617F. [Related pubchem assays: 1446 (Primary screen.), 1521 (Confirmation assay.), 1486 (Counter screen.)]; assay type: functional
# [17] = target: T5, Oxysterols receptor LXR-beta (Homo sapiens, UniProt P55055); assay type: functional, cell-based;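 note: agonist activity at LXR measured by a cell-based luminescence readout across a dose range, run as a counterscreen for daf-12 agonists; HEK293 cells with Gal4-LXR fusion and GAL4-driven luciferase reporter; potency for activation of Gal4-LXR reporter so compounds are agonists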
# T5 sequence (P55055 whole entry): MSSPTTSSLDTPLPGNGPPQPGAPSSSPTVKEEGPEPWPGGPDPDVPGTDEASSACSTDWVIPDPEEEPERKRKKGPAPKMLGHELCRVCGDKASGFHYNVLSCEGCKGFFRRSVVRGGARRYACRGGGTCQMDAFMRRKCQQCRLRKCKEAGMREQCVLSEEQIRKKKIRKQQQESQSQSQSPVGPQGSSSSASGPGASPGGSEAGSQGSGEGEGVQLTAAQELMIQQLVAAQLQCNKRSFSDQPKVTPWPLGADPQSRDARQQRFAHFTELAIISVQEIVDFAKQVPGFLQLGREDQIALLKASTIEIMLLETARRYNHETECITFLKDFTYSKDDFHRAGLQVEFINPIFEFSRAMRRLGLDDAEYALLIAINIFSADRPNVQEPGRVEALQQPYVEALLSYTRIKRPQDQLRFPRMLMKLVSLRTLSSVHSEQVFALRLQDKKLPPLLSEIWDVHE
# [18] = Luminescence Cell-Based Dose Response to Identify Activators of 5'UTR Stem-Loop Driven Prion Protein mRNA Translation in H4-C Neuroglioblastoma Cells. [Related pubchem assays: 1829 (Project Summary), 1814 (Primary HTS)]; assay type: functional
# [19] = Luminescence Cell-Based Dose Response to Identify Activators of Luciferase Translation or Activity in H4-C Neuroglioblastoma Cells. [Related pubchem assays: 1829 (Project Summary), 1814 (Primary HTS)]; assay type: functional
# [20] = Luminescence Cell-Based Dose Response HTS to Identify Activators of Luciferase Translation or Activity in H4 […] Cells. [Related pubchem assays: 1829 (Project Summary), 1814 (Primary HTS)]; assay type: functional
# H4 = test: Luminescence Cell-Based Dose Response HTS to Identify Activators of 5'UTR Stem-Loop Driven Prion Protein mRNA Translation in H4 Neuroglioblastoma Cells. [Related pubchem assays: 1829 (Project Summary), 1814 (Primary HTS)]; assay type: functional; conditions: Homo sapiens
# [21] = Luminescence Cell-Based Dose Confirmation to Identify Activators of 5'UTR Stem-Loop Driven Alpha-Synuclein mRNA Translation in H4 Neuroglioblastoma Cells. [Related pubchem assays: 1829 (Project Summary), 1814 (Primary HTS)]; assay type: functional
# [22] = target: T4, Voltage-gated inwardly rectifying potassium channel KCNH2; test: hERG protection from proarrhythmic block, potency, dose response, cell-based, thallium flux (AID 2121); assay type: ADME
# Ephrin type-A receptor 4 = Ephrin type-A receptor 4 (Mus musculus, UniProt Q03137); test: inhibitors of EphA4 binding to KYL peptide, primary screen, biochemical, colorimetric, mouse EphA4 (AID 689); assay type: functional
# [23] = HEp-2 cell cytotoxicity, dose response, cytotoxicity control for RSV inhibitor project, HTS (AID 2410); assay type: functional; conditions: human respiratory syncytial virus
# Vero [24] = test: West Nile virus antiviral activity, cell-based, CPE readout (AID 1621); assay type: functional; conditions: Chlorocebus sabaeus
# Vero [25] = test: cells; assay type: functional, cell-based; conditions: Chlorocebus sabaeus
# Vero [26] = test: cells; assay type: functional; conditions: Chlorocebus sabaeus
# Ion channel NompC [27] = target: T6, Ion channel NompC (Danio rerio, UniProt Q7T1G6); test: Fluorescence counterscreen assay for TRPML3 agonists: dose response cell-based high-throughput screening assay to identify agonists of the transient receptor potential channel N1 (TRPN1). [Related pubchem assays: 1526, 1424, 1448 ]; assay type: functional
# T6 sequence (Q7T1G6 whole entry): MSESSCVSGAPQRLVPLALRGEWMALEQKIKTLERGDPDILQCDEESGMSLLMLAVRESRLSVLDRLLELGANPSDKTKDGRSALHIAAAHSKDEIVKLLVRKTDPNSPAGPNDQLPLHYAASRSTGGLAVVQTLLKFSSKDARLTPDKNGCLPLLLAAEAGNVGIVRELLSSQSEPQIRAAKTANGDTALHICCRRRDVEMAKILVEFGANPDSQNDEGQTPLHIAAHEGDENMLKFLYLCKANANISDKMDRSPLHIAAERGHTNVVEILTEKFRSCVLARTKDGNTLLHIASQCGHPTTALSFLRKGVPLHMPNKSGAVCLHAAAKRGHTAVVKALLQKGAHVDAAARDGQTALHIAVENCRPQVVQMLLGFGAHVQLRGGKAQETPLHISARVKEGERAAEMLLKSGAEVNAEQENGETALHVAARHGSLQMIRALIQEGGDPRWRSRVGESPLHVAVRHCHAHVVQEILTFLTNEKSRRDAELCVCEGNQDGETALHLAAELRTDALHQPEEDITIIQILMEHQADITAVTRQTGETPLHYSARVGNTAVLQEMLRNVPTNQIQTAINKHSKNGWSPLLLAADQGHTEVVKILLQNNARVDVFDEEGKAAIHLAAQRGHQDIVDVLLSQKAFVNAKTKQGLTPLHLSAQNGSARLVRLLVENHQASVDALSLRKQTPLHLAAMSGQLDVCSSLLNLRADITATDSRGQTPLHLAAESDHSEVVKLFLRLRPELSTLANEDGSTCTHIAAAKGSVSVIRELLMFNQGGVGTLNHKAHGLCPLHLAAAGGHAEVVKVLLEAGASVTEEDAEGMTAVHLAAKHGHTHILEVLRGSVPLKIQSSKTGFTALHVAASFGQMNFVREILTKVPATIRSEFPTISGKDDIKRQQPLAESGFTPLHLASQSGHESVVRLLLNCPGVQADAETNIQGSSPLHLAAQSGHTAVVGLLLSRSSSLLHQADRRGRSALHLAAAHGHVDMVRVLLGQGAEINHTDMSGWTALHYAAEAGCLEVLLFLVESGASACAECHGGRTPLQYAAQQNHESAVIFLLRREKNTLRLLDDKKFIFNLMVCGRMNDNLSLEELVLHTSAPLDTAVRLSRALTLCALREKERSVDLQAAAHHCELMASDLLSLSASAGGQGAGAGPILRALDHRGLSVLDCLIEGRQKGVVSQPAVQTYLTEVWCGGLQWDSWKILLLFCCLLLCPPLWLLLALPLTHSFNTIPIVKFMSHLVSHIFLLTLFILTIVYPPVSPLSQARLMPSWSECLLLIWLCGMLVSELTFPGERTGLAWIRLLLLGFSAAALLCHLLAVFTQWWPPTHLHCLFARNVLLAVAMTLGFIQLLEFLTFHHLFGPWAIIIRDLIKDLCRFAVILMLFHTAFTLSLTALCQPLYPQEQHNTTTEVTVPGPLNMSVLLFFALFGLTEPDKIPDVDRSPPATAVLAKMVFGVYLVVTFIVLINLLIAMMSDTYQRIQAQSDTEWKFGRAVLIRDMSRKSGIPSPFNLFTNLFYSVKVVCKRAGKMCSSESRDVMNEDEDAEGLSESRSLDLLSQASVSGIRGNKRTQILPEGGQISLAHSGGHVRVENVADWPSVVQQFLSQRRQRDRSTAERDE
# Mucolipin-3 [28] = target: T7, Mucolipin-3 (Homo sapiens, UniProt Q8TDD5); test: Dose response cell-based high-throughput screening assay for agonists of the transient receptor potential channel ML3 (TRPML3). [Related pubchem assays: 1526, 1424, 1448 ]; assay type: functional
# T7 sequence (Q8TDD5 whole entry): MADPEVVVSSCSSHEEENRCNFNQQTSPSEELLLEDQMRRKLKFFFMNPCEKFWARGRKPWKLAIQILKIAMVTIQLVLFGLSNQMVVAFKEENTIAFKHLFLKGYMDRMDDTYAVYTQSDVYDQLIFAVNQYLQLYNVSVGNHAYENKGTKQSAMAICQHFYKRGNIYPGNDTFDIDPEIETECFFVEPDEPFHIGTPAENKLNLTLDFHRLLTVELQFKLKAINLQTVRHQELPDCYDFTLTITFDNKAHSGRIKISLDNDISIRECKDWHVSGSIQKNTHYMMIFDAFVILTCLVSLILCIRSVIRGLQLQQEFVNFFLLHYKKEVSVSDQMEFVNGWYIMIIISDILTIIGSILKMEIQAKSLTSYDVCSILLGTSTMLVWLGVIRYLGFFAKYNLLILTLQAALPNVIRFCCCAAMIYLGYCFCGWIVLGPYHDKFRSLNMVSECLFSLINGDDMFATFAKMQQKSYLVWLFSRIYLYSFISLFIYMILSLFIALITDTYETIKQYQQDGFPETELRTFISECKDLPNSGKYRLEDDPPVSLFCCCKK
# Mucolipin-3 [29] = target: T7, Mucolipin-3; test: TRPML3 agonist potency, dose response, cell-based, calcium fluorescence (AID 2510); assay type: functional
# Ion channel NompC [30] = target: T6, Ion channel NompC; test: Late stage counterscreen for the probe development effort to identify selective agonists of the Transient Receptor Potential Channels 3 (TRPML3): fluorescence-based cell-based dose response assay for TRPN1 agonists.; assay type: functional
smiles,measurement,setting,value
Cc1ccc(NC(S)=NCc2ccc3c(c2)OCO3)cc1C,IC50,[1],9.96 µM (active)
same,IC50,[2],10 µM (not active)
O=c1c(Cl)c(Cl)cnn1-c1ccccc1,AC50,[3],4.49 µM (active)
same,IC50,[4],1.86 µM (active)
same,IC50,[5],49.7 µM (inactive)
same,AC50,[6],14.4 µM (active)
same,AC50,[7],16.3 µM (active)
same,AC50,A-375,23.8 µM (active)
same,AC50,[8],7.52 µM (active)
same,AC50,[9],9.54 µM (active)
same,EC50,[10],5.45 µM (active)
same,IC50,[11],8.71 µM (active)
same,AC50,[12],19 µM (active)
same,AC50,[13],25.8 µM (active)
same,AC50,Paired box protein Pax-8,6.1 µM (active)
Clc1ccc(Nc2ccc(Cl)nn2)cc1,EC50,[14],7.86 µM (active)
same,EC50,[10],> 195 µM (not active)
N#C/C(=C\c1ccc(O)c(O)c1)C(=O)NCCCc1ccccc1,IC50,Large T antigen,21 µM (active)
same,AC50,[15],15.8 µM (inconclusive)
same,IC50,[16],1.7 µM (active)
CCOC(=O)c1c[nH]nc1N=C(S)Nc1ccccc1,EC50,[17],> 67.6 µM (inactive)
same,EC50,[18],352 nM (active)
same,EC50,[19],324 nM (active)
same,EC50,[20],< 100 nM (active)
same,EC50,H4,> 120 µM (not active)
same,EC50,[21],380 nM (active)
O=C(/C=C/c1ccccc1)CC(=O)c1ccccc1O,EC50,[22],2.67 µM (active)
COC(=O)CSc1nc(-c2ccccc2)cc(-c2ccco2)c1C#N,IC50,Ephrin type-A receptor 4,> 100 µM (not active)
Cc1c(NC(=O)COC(=O)c2cc(-c3ccc(-c4ccccc4)cc3)nc3ccccc23)c(=O)n(-c2ccccc2)n1C,CC50,[23],2.93 µM (active)
same,IC50,Vero [24],21.1 µM (active)
same,IC50,Vero [25],2.09 µM (active)
same,IC50,cells,530 nM (active)
same,CC50,Vero [26],11.5 µM (active)
Cc1ccc(S(=O)(=O)n2nccc2-c2c(-c3ccc(Cl)cc3)noc2C)cc1,EC50,Ion channel NompC [27],> 29.9 µM (not active)
same,EC50,Mucolipin-3 [28],325 nM (active)
same,EC50,Mucolipin-3 [29],253 nM (active)
same,EC50,Ion channel NompC [30],> 29.9 µM (not active)
